Patent US10357480B2, “Biotin for treating peripheral demyelinating neuropathy” (MedDay Pharmaceuticals, priority 2015, dated 2019)

Key:
[1] = system: CMT1A; conditions: six clinical trials, 1- or 2-year AA treatment; cited from earlier work
[2] = in vivo; cited from earlier work
[3] = system: patient suffering from ALS; experiment: Treatment of a patient suffering from ALS with high doses biotin (case report); assay type: in vivo, human
Procedure: Treatment with biotin 100 mg three times a day was started the 11 Sep. 2015. […] All these medications were introduced at least 6 months before.

[4] = system: patients diagnosed with Neuromyelitis optica; experiment: Treatment of patients with neuromyelitis optica, visual acuity and motor strength; assay type: in vivo, human; conditions: for visual acuity right: 0/10 at onset; for visual acuity left: 9/10 at onset
Description: Biotin can be used for treatment of neuromyelitis optica, using the same kind of regimen as disclosed in Examples 1 and 4.
Endpoint would be partial recovery and improvement of vision or of motor strength. Three patients will be treated and assessed every 6 months with measures of visual acuity (VA) and clinical examination including motor strength testing. Results will be considered positive in case of improvement of VA of at least 5 letters associated with any improvement of motor strength.
Results: • Patient 1: this person was diagnosed with Neuromyelitis optica. First episode of right optic neuritis occurred in 2006. This was followed by an attack of tetraplegia in 2009 with positive anti-NMO antibodies. […] The patient could not walk. Treatment with biotin (100 mg three times a day) was started. […] Treatment with biotin (100 mg three times a day) was introduced. At that time the patient was treated with monthly perfusions of cyclophosphamide. Visual acuity was 0/10 right and 9/10 left. After 4 months of treatment with biotin, visual acuity was 1/10 right and 6/10 left. After 18 months of treatment, visual acuity was 2/10 right and 8/10 left. It was concluded that treatment with biotin improved the right visual acuity.

[5] = system: patients with demyelinating Charcot Marie Tooth (CMT) disease; experiment: Treatment of patients with demyelinating Charcot Marie Tooth disease, 6 minutes walking test; assay type: in vivo, human
Procedure: Two patients with demyelinating Charcot Marie Tooth (CMT) disease were treated with biotin 300 mg/day. • A patient with CMT1a was treated with high doses of biotin (100 mg three times a day). No other treatment was introduced. The patient was followed clinically using a 6 minutes walking test. After 9 months of treatment the maximum walking distance was improved by 100 meters. • A person with CMT1E (a rare form of demyelinating CMT with hearing loss) was treated with high doses biotin (100 mg three times a day). No other drug was introduced.

[6] = system: IgM anti-MAG demyelinating neuropathy; conditions: controlled trial (Léger et al, 2013); cited from earlier work
[7] = biotin 100 mg three times a day

## O=C1O[C@H]([C@@H](O)CO)C(O)=C1O [Ascorbic acid]
[1]
  clinical benefit: no clinical benefit

## O=C(O)CCCC[C@@H]1SC[C@@H]2NC(=O)N[C@@H]21 [biotin, Biotin]
[2]
  plasma half life: about 2 hours
[3]; after 6 months of treatment, dependent on ventilator 24 hours a day at beginning
  time the patient could switch off the medical ventilator: 4 hours a day
[3]; [7]
  disability: some stabilization of its disability
  weight of the patient: slightly increased
[3]; biotin 100 mg three times a day, after 3 and 6 months, better exercise tolerance during physical therapy
  muscle atrophy in lower extremities: some improvement
[3]; biotin 100 mg three times a day, after 3 and 6 months, concomitant riluzole and other medications
  limbs weakness and swallowing: stabilization
[4]; NMO Patient 1, after 9 months
  strength in the right lower limb: better strength
[4]; NMO Patient 1, after 24 months, could not walk at onset
  walking ability: walk with two aids and the help of the physical therapist
[4]; NMO Patient 1, biotin 100 mg three times a day, 24 months
  tolerability of treatment: very well tolerated
[4]; NMO Patient 1, biotin 100 mg three times a day, after three months, confirmed after 9 months
  right hand movements: some improvement
[4]; NMO Patient 2, after 4 months of biotin 100 mg three times a day, monthly cyclophosphamide
  visual acuity right: 1/10
[4]; NMO Patient 2, after 4 months
  visual acuity left: 6/10
[4]; NMO Patient 2, after 18 months
  visual acuity right: 2/10
  visual acuity left: 8/10
[5]; CMT1E patient, after 9 months, 396 meters at onset
  6 minutes walk test: 490 meters
[5]; CMT1E patient, after 12 months, 396 meters at onset
  6 minutes walk test: 480 meters
[5]; CMT1E patient, after 18 months, 396 meters at onset
  6 minutes walk test: 483 meters
[5]; CMT1E patient, after 24 months, 396 meters at onset
  6 minutes walk test: 580 meters
[5]; patient with CMT1a, biotin 100 mg three times a day, after 9 months
  improvement of maximum walking distance, 6 minutes walking test: 100 meters
[5]; person with CMT1E, biotin 100 mg three times a day, after 3 months, 396 meters at treatment's onset
  6 minutes walk test: 515 meters

## Rituximab: monoclonal antibody
[6]
  patients condition: didn't really improve
